Experimental data published in patent US9254291B2, “Modulators of ATP-binding cassette transporters” (VERTEX PHARMACEUTICALS INCORPORATED, priority 2011, dated 2016).

Molecular target: T1, ΔF508-CFTR (Homo sapiens, UniProt P13569, DEL508-508)
T1 construct: expressed in transfected cells
Experiment: Membrane potential optical assay for ΔF508-CFTR correction properties of compounds
Assay type: cell-based
Conditions: ΔF508-CFTR in NIH3T3 mouse fibroblasts; test behind Table 2 not named
From the text: Assays for Detecting and Measuring ΔF508-CFTR Correction Properties of Compounds
Membrane potential optical methods for assaying ΔF508-CFTR modulation properties of compounds.
The assay utilizes fluorescent voltage sensing dyes to measure changes in membrane potential using a fluorescent plate reader (e.g., FLIPR III, Molecular Devices, Inc.) as a readout for increase in functional ΔF508-CFTR in NIH 3T3 cells. The driving force for the response is the creation of a chloride ion gradient in conjunction with channel activation by a single liquid addition step after the cells have previously been treated with compounds and subsequently loaded with a voltage sensing dye.
Identification of Correction Compounds
To identify small molecules that correct the trafficking defect associated with ΔF508-CFTR; a single-addition HTS assay format was developed. […] Cells are then ready for compound exposure after adhering to the bottom of the assay plates.
The cells were incubated in serum-free medium for 16-24 hrs in tissue culture incubator at 37° C., 5% CO2, 90% humidity in the presence or absence (negative control) of test compound. […] The addition of Cl^−-free medium promoted Cl^− efflux in response to ΔF508-CFTR activation and the resulting membrane depolarization was optically monitored using voltage sensor dyes. […]

T1 sequence (P13569 with tags, fused parts or gaps DEL508-508): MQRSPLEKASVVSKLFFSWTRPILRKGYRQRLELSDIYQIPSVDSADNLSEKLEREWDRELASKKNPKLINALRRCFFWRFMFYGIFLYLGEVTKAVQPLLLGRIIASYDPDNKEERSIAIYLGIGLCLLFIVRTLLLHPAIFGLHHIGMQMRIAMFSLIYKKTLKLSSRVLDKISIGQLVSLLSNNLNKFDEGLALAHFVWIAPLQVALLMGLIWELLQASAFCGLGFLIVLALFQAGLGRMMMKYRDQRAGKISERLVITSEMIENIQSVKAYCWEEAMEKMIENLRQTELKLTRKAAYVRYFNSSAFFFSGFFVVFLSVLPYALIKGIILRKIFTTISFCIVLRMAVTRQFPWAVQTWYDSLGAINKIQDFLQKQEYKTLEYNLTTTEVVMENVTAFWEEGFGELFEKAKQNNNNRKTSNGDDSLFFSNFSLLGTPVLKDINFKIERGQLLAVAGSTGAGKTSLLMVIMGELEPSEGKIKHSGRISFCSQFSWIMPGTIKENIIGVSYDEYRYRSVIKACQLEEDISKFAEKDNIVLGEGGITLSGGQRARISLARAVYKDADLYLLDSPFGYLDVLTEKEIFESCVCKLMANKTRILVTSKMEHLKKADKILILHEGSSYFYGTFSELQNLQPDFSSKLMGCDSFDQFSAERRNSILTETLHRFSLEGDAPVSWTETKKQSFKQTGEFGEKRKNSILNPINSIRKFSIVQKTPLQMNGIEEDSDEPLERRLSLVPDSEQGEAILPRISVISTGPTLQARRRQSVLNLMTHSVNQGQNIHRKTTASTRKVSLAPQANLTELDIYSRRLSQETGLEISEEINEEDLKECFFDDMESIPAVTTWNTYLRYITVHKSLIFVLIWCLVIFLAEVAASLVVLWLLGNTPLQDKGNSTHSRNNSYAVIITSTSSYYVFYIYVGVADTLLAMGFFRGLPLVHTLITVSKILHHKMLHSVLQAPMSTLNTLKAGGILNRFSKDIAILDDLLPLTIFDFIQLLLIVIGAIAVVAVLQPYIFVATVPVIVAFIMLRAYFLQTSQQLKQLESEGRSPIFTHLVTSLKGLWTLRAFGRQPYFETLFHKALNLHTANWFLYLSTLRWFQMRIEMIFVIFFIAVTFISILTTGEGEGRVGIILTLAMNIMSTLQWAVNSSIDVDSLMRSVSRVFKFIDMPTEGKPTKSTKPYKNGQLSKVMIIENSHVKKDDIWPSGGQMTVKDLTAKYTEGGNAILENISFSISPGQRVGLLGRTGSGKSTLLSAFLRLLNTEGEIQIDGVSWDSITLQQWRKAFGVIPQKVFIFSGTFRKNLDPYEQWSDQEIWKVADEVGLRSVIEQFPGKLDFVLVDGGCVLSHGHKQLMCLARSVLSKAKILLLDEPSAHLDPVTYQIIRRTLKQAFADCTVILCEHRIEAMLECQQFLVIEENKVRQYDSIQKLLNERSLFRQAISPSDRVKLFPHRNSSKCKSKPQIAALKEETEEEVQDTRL

CC1(C)c2cc3cc(NC(=O)C4(c5ccc6c(c5)OC(F)(F)O6)CC4)c(F)cc3n2C[C@H](CO)OC1O (stereo partly drawn) [1-(2,2-difluorobenzo[d][1,3]dioxol-5-yl)-N-((4R)-8-fluoro-2-hydroxy-4-(hydroxymethyl)-1,1-dimethyl-1,2,4,5-tetrahydro-[1,4]oxazepino[4,5-a]indol-9-yl)cyclopropanecarboxamide]
EC50: < 2000 nM
